Data from patent publication US20100267954A1, “PROCESS FOR THE PURIFICATION OF PALIPERIDONE” (DIPHARMA FRANCIS S.r.l., priority 2009, published 2010).
Where a name gives a salt, the structure may show the parent alone.

Experiments:
[1] = solubility in water (descriptive statement); type: physicochemical; conditions: crystalline solid
[2] = compared with Form II, hydrate form and solvate form; per EMEA document; cited from earlier work

For `Cc1nc2n(c(=O)c1CCN1CCC(c3noc4cc(F)ccc34)CC1)CCCC2O` (racemic) [paliperidone Form I, (±)-3-[2-[4-(6-fluoro-1,2-benzoisoxazol-3-yl)-1-piperidinyl]ethyl-6,7,8,9-tetrahydro-9-hydroxy-2-methylpropanediol-4H-pyrido[1,2-a]pyrimidin-4-one], the solubility in water [1] is listed as “poorly soluble in water” and the “thermodynamic stability among crystalline forms” value [2] is listed as “most thermodynamically stable”.
With `Cc1nc2n(c(=O)c1CCN1CCC(c3noc4cc(F)ccc34)CC1)CCCC2O` (stereo not drawn) [paliperidone hydrochloride, 3-[2-[4-(6-fluoro-1,2-benzoisoxazol-3-yl)-1-piperidinyl]ethyl-6,7,8,9-tetrahydro-9-hydroxy-2-methyl-4H-pyrido[1,2-a]-pyrimidin-4-one hydrochloride] the solubility in water [1] was “poorly soluble in water”.
